Test results: patent publication US20160278375A1, “BISCATIONIC AND TRISCATIONIC AMPHIPHILES AS ANTIMICROBIAL AGENTS” (Temple University of the Commonwealth System of Higher …, priority 2013, published 2016)
Read-outs that look alike come from different tables or passages of the source.

Legend:
[1] = test system: Pseudomonas aeruginosa (PAO1-WT); assay: MIC determination by two-fold serial dilution in 96-well microtiter plates; type: cell-based; details: Table 1, 37° C., 72 hours, read-out: MIC, Gram negative P. aeruginosa
Protocol: (§1) For the compounds above, respective minimum inhibitory concentration (MIC) values against the Gram-positive S. aureus, E. faecalis, Gram-negative E. coli and P. aeruginosa were determined, respectively, by standard methods. […] Cell viability was verified by serial dilution and plating on MH agar. Both aqueous and fresh media positive controls were performed for each trial. Overnight bacterial cultures of Staphylococcus aureus (SH1000), Enterococcus faecalis (OG1RF), Escherichia coli (MC4100), and Pseudomonas aeruginosa (PAO1-WT) were grown in Mueller-Hinton broth at 37° C., with all but E. faecalis under shaking Overnight cultures were diluted to approximately 10^6 cfu/mL as determined by OD measurement at 640 nm and plating on MH agar.
(§2) Each compound was serially diluted two-fold with water from 1 mM down to 1 μM yielding twelve dilutions per compound. In triplicate, 100 µL of each dilution were pipetted into the appropriate well of a 96-well microtiter plate, and then […] of overnight bacterial culture diluted to ca. 10^6 cfu/mL were inoculated into each well. Microtiter plates were incubated at 37° C. for 72 hours. Up to seven compounds were tested against one bacterial species at twelve decreasing concentrations per 96-well plate.

[2] = test system: Escherichia coli (MC4100); assay: as above; type: cell-based; details: read-out: MIC, Gram negative E. coli
Protocol: as §1, §2

[3] = test system: Staphylococcus aureus (SH1000); assay: as above; type: cell-based; details: Table 1, 37° C., 72 hours, read-out: MIC, Gram positive S. aureus
Protocol: as §1, §2

[4] = test system: Enterococcus faecalis (OG1RF); assay: as above; type: cell-based; details: Table 1, 37° C., 72 hours, read-out: MIC, Gram positive E. faecalis
Protocol: as §1, §2

[5] = test system: S. aureus, E. faecalis, E. coli and P. aeruginosa; assay: MIC determination, statements across the bacteria tested; type: cell-based
Protocol: as §1, §2

water solubility = type: physicochemical
[6] = Escherichia coli, Table 1, 37° C., 72 hours

Compound	MIC ([1]; Pseudomonas aeruginosa, PAO1)	MIC ([2]; Escherichia coli, 72 h)	MIC ([3]; Staphylococcus aureus)	MIC ([4]; Enterococcus faecalis)	other results
CCCCCCCCCCCCCCCC[N+](C)(C)CC[N+](C)(C)CCCCCCCCCCCCCC [(16, 2, 14)]	63 µM	16 µM	8 µM	2 µM	
CCCCCCCCCCCCCCCC[N+](C)(C)CC[N+](C)(C)CCCCCCCCCCCCCCCC [(16, 2, 16)]	63 µM	32 µM	8 µM	8 µM	
CCCCCCCCCCCCCCCCCC[N+](C)(C)CCN(C)C [(18, 2, 0)]			2 µM	4 µM	MIC [1]: 63 µM; MIC [2, 6]: 63 µM
CCCCCCCCCCCCCCCCCC[N+](C)(C)CC[N+](C)(C)CCCCCCCC [(18, 2, 8)]	32 µM	8 µM	2 µM	2 µM	
CCCCCCCCCCCCCCCCCC[N+](C)(C)CC[N+](C)(C)CCCCCCCCCC [(18, 2, 10)]	32 µM	16 µM	4 µM	2 µM	
CCCCCCCCCCCCCCCCCC[N+](C)(C)CC[N+](C)(C)CCCCCCCCCCCC [(18, 2, 12)]	32 µM	16 µM	4 µM	4 µM	
CCCCCCCCCCCCCCCCCC[N+](C)(C)CC[N+](C)(C)CCCCCCCCCCCCCC [(18, 2, 14)]	63 µM	16 µM	8 µM	16 µM	
CCCCCCCCCCCCCCCCCC[N+](C)(C)CC[N+](C)(C)CCCCCCCCCCCCCCCC [(18, 2, 16)]	63 µM	32 µM	16 µM	32 µM	
CCCCCCCCCCCCCCCCCC[N+](C)(C)CC[N+](C)(C)CCCCCCCCCCCCCCCCCC [(18, 2, 18)]	500 µM	250 µM	32 µM	63 µM	
CCCCCCCCCCCCCCCCCCCC[N+](C)(C)CCN(C)C [(20, 2, 0)]	125 µM		4 µM	4 µM	MIC [2, 6]: 63 µM
CCCCCCCCCCCCCCCCCCCC[N+](C)(C)CC[N+](C)(C)CCCCCCCC [(20, 2, 8)]	32 µM	16 µM	4 µM	4 µM	
CCCCCCCCCCCCCCCCCCCC[N+](C)(C)CC[N+](C)(C)CCCCCCCCCC [(20, 2, 10)]	16 µM	16 µM	4 µM	16 µM	
CCCCCCCCCCCCCCCCCCCC[N+](C)(C)CC[N+](C)(C)CCCCCCCCCCCC [(20, 2, 12)]	63 µM	32 µM	8 µM	4 µM	
CCCCCCCCCCCCCCCCCCCC[N+](C)(C)CC[N+](C)(C)CCCCCCCCCCCCCC [(20, 2, 14)]	63 µM	16 µM	8 µM	16 µM	
CCCCCCCCCCCCCCCCCCCC[N+](C)(C)CC[N+](C)(C)CCCCCCCCCCCCCCCC [(20, 2, 16)]	63 µM	63 µM	16 µM	32 µM	
CCCCCCCCCCCC[N+](C)(C)CC[N+](C)(C)CCCCCCCCCC [Compound (12, 2, 10)]					MIC ([5]; S. aureus, E. faecalis, E. coli, P. aeruginosa, read-out: MIC values against all four bacterial species tested): ≤ 2 µM
CCCCCCCCCCCCC[N+](C)(C)CC[N+](C)(C)CCCCCCCCCC [Compound (13, 2, 10)]	2 µM	2 µM	1 µM	1 µM	
CCCCCCCCCCCCCCCCCC[N+](C)(C)CCN(C)C.[Br-] [Compound (18, 2, 0)]	63 µM				MIC ([2]; Table 1, 37° C., 72 hours): 63 µM; MIC ([5]; S. aureus and E. faecalis, read-out: MIC values versus Gram positive bacteria): 2 to 4 µM
CCCCCCCCCCCCCCCCCC[N+](C)(C)CC[N+](C)(C)CCCCCCCC [Compound (18, 2, 8)]					water solubility (water solubility): fully water soluble
CCCCCCCCCCCCCCCCCCCC[N+](C)(C)CC[N+](C)(C)CCCCCCCC [Compound (20, 2, 8)]					water solubility (water solubility): fully water soluble
N-alkyl-N-benzyl-N,N-dimethylammonium chloride [benzalkonium chloride, reference compound]					MIC [1]: 63 µM; MIC ([2]; Table 1, 37° C., 72 hours): 32 µM; MIC [3]: 8 µM; MIC [4]: 8 µM; fold less activity ([5]; compared with compound (12,2,10)): 4-32 fold
